Experimental data reported in PMC8126888 (RSC Medicinal Chemistry, 2020).
Where two headings read alike, the source gives them in different places.

Assays:
in vitro [1] = details: PAMPA
[2] = tested on: Trypanosoma cruzi, Tulahuen CL2, beta-galactosidase strain; experiment: microbe, parasite or virus in culture
[3] = tested on: primary peritoneal mouse macrophages (PMM); experiment: cells; details: Macrophage
[4] = tested on: Leishmania infantum MHOM/MA(BE)/67/ITMAP263 intracellular amastigotes; experiment: microbe, parasite or virus in culture; details: Macrophage, in Mus musculus
in vitro [5] = details: human
in vitro [6] = details: human, microsomes, human liver microsomes
physchem = details: HPLC, Ascentis Express RP Amide column, pH 7.4, eLogD, experimental
in vitro [7] = details: mouse, microsomes, mouse liver microsomes
in vitro [8] = details: PAMPA; remark: listed apart in the source
in vitro [9] = details: human, HepG2 cells
in vitro [10] = details: human, HFF-1 cells
[11] = MRC5, read-out: T. cruzi Tulahuen C4 (LacZ) IC50
[12] = read-out: L. Inf. pIC50, from L. infantum intracellular amastigote IC50 (converted)
[13] = read-out: L. infantum MHOM/MA(BE)/67/ITMAP263 intracellular amastigotes IC50, intracellular amastigotes

Structure (SMILES)	Papp (in vitro [1])	IC50 [2, 11]	IC50 ([3]; read-out: PMM IC50)	IC50 [4, 12]	IC50 [4, 13]	CC50 at 3 days (in vitro [5])	microsomal CLint at 0.5 μM (in vitro [6]; pH 7.4, HLM CLint)	chromatographic logD (physchem)	microsomal CLint at 0.5 μM (in vitro [7]; pH 7.4, MLM CLint)	Papp (in vitro [8])	IC50 ([2]; MRC5, read-out: T. cruzi Tulahuen C4 (LacZ) IC50 (uM))	IC50 ([3]; read-out: PMM IC50 (uM))	IC50 ([4]; read-out: L. infantum MHOM/MA(BE)/67/ITMAP263 intracellular amastigotes IC50 (uM), intracellular amastigotes)	CC50 (in vitro [9])	CC50 (in vitro [10])	microsomal CLint at 0.5 μM (in vitro [6]; pH 7.4, HLM CLint (uL/min/mg))	microsomal CLint at 0.5 μM (in vitro [7]; pH 7.4, MLM CLint (uL/min/mg))
COc1ccc(C#N)cc1S(=O)(=O)N(Cc1ccccc1)Cc1ccccc1 [DNDI0003366138]	3.93 ×10⁻⁶ cm/s	8.16 µM	> 64 µM	0.437 µM	0.44 µM	40.4 µM	304 µL/min/mg	–	–	–	–	–	–	–	–	–	–
CN(C)CCN(Cc1ccccc1)S(=O)(=O)c1ccccc1S(C)(=O)=O [DNDI0003367255]	2.04 ×10⁻⁶ cm/s	> 64 µM	> 64 µM	> 64 µM	> 64 µM	> 64 µM	–	2.6	–	–	–	–	–	–	–	–	–
COc1ccc(OC)c(S(=O)(=O)N(Cc2ccccc2)C2CCCN(C(C)=O)C2)c1 (stereo not drawn) [DNDI0003367307]	16.4 ×10⁻⁶ cm/s	54.3 µM	> 64 µM	> 64 µM	> 64 µM	> 64 µM	–	3.3	–	–	–	–	–	–	–	–	–
COc1ccc(S(=O)(=O)N(Cc2ccccc2)Cc2ccccc2)cc1 [DNDI0003367309]	1 ×10⁻⁶ cm/s	> 64 µM	> 64 µM	45.7 µM	45.4 µM	> 64 µM	184 µL/min/mg	–	2410 µL/min/mg	–	–	–	–	–	–	–	–
COc1ccc(C(=O)O)cc1S(=O)(=O)N(Cc1ccccc1)Cc1ccccc1 [DNDI0003368287]	17.8 ×10⁻⁶ cm/s	> 64 µM	> 64 µM	57.5 µM	57 µM	> 64 µM	< 23 µL/min/mg	–	–	–	–	–	–	–	–	–	–
O=S(=O)(c1cc(F)ccc1F)N(CCO)Cc1ccccc1 [DNDI0003368289]	15.7 ×10⁻⁶ cm/s	47.2 µM	> 64 µM	> 64 µM	> 64 µM	> 64 µM	< 23 µL/min/mg	3.2	–	–	–	–	–	–	–	–	–
CN(C)CCN(Cc1ccccc1)S(=O)(=O)c1ccc(N)cc1 [DNDI0003368290]	0.88 ×10⁻⁶ cm/s	> 64 µM	> 64 µM	> 64 µM	> 64 µM	> 64 µM	56 µL/min/mg	2.5	–	–	–	–	–	–	–	–	–
CN(C)CCN(Cc1ccccc1)S(=O)(=O)c1ccc(N2C(=O)CCC2=O)cc1 [DNDI0003368291]	1.64 ×10⁻⁶ cm/s	> 64 µM	> 64 µM	> 64 µM	> 64 µM	> 64 µM	< 23 µL/min/mg	2.5	–	–	–	–	–	–	–	–	–
CN(C)CCN(Cc1ccccc1)S(=O)(=O)c1ccc(NC(=O)CCCO)cc1 [DNDI0003368293]	0.21 ×10⁻⁶ cm/s	> 64 µM	> 64 µM	> 64 µM	> 64 µM	> 64 µM	< 23 µL/min/mg	2.9	–	–	–	–	–	–	–	–	–
COc1ccc(OC)c(S(=O)(=O)N(CCN2CCOCC2)Cc2ccccc2)c1 [DNDI0003368294]	5.27 ×10⁻⁶ cm/s	> 64 µM	> 64 µM	9.12 µM	9.06 µM	> 64 µM	227 µL/min/mg	3.4	–	–	–	–	–	–	–	–	–
COc1ccc(OC)c(S(=O)(=O)N(Cc2ccc(F)cc2)Cc2nc(C)no2)c1 [DNDI0003368295]	8.92 ×10⁻⁶ cm/s	30 µM	> 64 µM	7.76 µM	7.75 µM	> 64 µM	350 µL/min/mg	–	–	–	–	–	–	–	–	–	–
COc1ccc(C(=O)N2CCOCC2)cc1S(=O)(=O)N(Cc1ccccc1)Cc1ccccc1 [DNDI0003368296]	6.19 ×10⁻⁶ cm/s	> 64 µM	45.2 µM	0.457 µM	0.46 µM	> 64 µM	810 µL/min/mg	–	–	–	–	–	–	–	–	–	–
COc1ccc(C(=O)N2CCCC2)cc1S(=O)(=O)N(Cc1ccccc1)Cc1ccccc1 [DNDI0003368297]	4.91 ×10⁻⁶ cm/s	> 64 µM	32 µM	0.49 µM	0.48 µM	> 64 µM	796 µL/min/mg	4.1	–	–	–	–	–	–	–	–	–
CNC(=O)c1ccc(OC)c(S(=O)(=O)N(Cc2ccccc2)Cc2ccccc2)c1 [DNDI0003368298]	10.4 ×10⁻⁶ cm/s	> 64 µM	50.8 µM	0.708 µM	0.71 µM	4.87 µM	316 µL/min/mg	3.8	–	–	–	–	–	–	–	–	–
COc1ncccc1S(=O)(=O)N(Cc1ccccc1)Cc1ccccc1 [DNDI0003368299]	2.05 ×10⁻⁶ cm/s	6.34 µM	> 64 µM	0.646 µM	0.64 µM	3.81 µM	849 µL/min/mg	–	–	–	–	–	–	–	–	–	–
COCCN(Cc1ccc(F)cc1)S(=O)(=O)c1cc(C#N)ccc1OC [DNDI0003368395]	15.3 ×10⁻⁶ cm/s	> 64 µM	> 64 µM	8.91 µM	8.88 µM	> 64 µM	< 23 µL/min/mg	–	–	–	–	–	–	–	–	–	–
CCCCOc1ncccc1S(=O)(=O)NCc1ccc(F)cc1 [DNDI0003368396]	14.9 ×10⁻⁶ cm/s	29.6 µM	> 64 µM	8.71 µM	8.73 µM	> 64 µM	1650 µL/min/mg	3.8	–	–	–	–	–	–	–	–	–
O=S1(=O)NC(Cc2ccccc2)COc2ccc(F)cc21 (stereo not drawn) [DNDI0003368460]	26.2 ×10⁻⁶ cm/s	> 64 µM	> 64 µM	> 64 µM	> 64 µM	> 64 µM	–	3.3	–	–	–	–	–	–	–	–	–
COC(=O)C(Cc1ccccc1)NS(=O)(=O)c1ccccc1Br (stereo not drawn) [DNDI0003369003]	20.4 ×10⁻⁶ cm/s	58 µM	> 64 µM	> 64 µM	> 64 µM	> 64 µM	–	3.4	–	–	–	–	–	–	–	–	–
COc1ccc(CN2CCOCC2)cc1S(=O)(=O)N(Cc1ccc(F)cc1)Cc1ccc(F)cc1 [DNDI0003370082]	0.74 ×10⁻⁶ cm/s	1.56 µM	> 64 µM	0.525 µM	0.52 µM	> 64 µM	49 µL/min/mg	–	3200 µL/min/mg	–	–	–	–	–	–	–	–
C=C(c1ccc(F)cc1)N(Cc1ccccc1)S(=O)(=O)c1cc(Cl)ccc1O [DNDI0003371156]	1.41 ×10⁻⁶ cm/s	2.26 µM	8 µM	7.41 µM	7.44 µM	3.61 µM	–	5.1	–	–	–	–	–	–	–	–	–
COc1ccc(Cl)cc1S(=O)(=O)N(Cc1ccccc1)C(CO)CO [DNDI0003389933]	–	–	–	57.5 µM	–	> 64 µM	–	3.2	–	13.2 ×10⁻⁶ cm/s	14.3 µM	> 64 µM	57 µM	> 64 µM	> 64 µM	109 µL/min/mg	253 µL/min/mg
